Results published in US9113629B2, “4-amino-6-(4-substituted-phenyl)-picolinates and 6-amino-2-(4-substituted-phenyl)-pyrimidine-4-carboxylates and their use as herbicides” (DOW AGROSCIENCES LLC, priority 2013, dated 2015).

Assays:
Type in all cases: in vivo
[1] = tested on: ECHCG: barnyardgrass (Echinochloa crus-galli); test: Pre-emergent Test I herbicidal activity; settings: pre-emergence, 336 h, read-out: Visual Growth Reduction (%) 14 Days After Application, ECHCG
Summary of the method: (§1)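 Compound applied pre-emergence to seeded sandy loam, with water incorporation afterwards. Damage, or lack of emergence, was assessed visually against controls 14 days after treatment using a 0-100 scale.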

[2] = tested on: IPOHE: ivyleaf morningglory (Ipomoea hederecea); test: Pre-emergent Test I herbicidal activity; settings: pre-emergence, 336 h, read-out: Visual Growth Reduction (%) 14 Days After Application, IPOHE
Summary of the method: as §1

[3] = tested on: AVEFA: wild oats (Avena fatua); test: Pre-emergent Test I herbicidal activity; settings: pre-emergence, 336 h, read-out: Visual Growth Reduction (%) 14 Days After Application, AVEFA
Summary of the method: as §1

[4] = tested on: HELAN: sunflower (Helianthus annuus); test: Pre-emergent Test I herbicidal activity; settings: pre-emergence, 336 h, read-out: Visual Growth Reduction (%) 14 Days After Application, HELAN
Summary of the method: as §1

[5] = tested on: SETFA: giant foxtail (Setaria faberi); test: Pre-emergent Test I herbicidal activity; settings: pre-emergence, 336 h, read-out: Visual Growth Reduction (%) 14 Days After Application, SETFA
Summary of the method: as §1

[6] = tested on: AMARE: redroot pigwseed (Amaranthus retroflexus); test: Pre-emergent Test I herbicidal activity; settings: pre-emergence, 336 h, read-out: Visual Growth Reduction (%) 14 Days After Application, AMARE
Summary of the method: as §1

[7] = tested on: ECHCG: barnyardgrass (Echinochloa crus-galli); test: Post-emergent Test I herbicidal activity; settings: post-emergence, 336 h, read-out: Visual Growth Reduction (%) 14 Days After Application, ECHCG
[8] = tested on: IPOHE: ivyleaf morningglory (Ipomoea hederecea); test: Post-emergent Test I herbicidal activity; settings: post-emergence, 336 h, read-out: Visual Growth Reduction (%) 14 Days After Application, IPOHE
[9] = tested on: AVEFA: wild oats (Avena fatua); test: Post-emergent Test I herbicidal activity; settings: post-emergence, 336 h, read-out: Visual Growth Reduction (%) 14 Days After Application, AVEFA
[10] = tested on: HELAN: sunflower (Helianthus annuus); test: Post-emergent Test I herbicidal activity; settings: post-emergence, 336 h, read-out: Visual Growth Reduction (%) 14 Days After Application, HELAN
[11] = tested on: SETFA: giant foxtail (Setaria faberi); test: Post-emergent Test I herbicidal activity; settings: post-emergence, 336 h, read-out: Visual Growth Reduction (%) 14 Days After Application, SETFA
[12] = tested on: AMARE: redroot pigwseed (Amaranthus retroflexus); test: Post-emergent Test I herbicidal activity; settings: post-emergence, read-out: Visual Growth Reduction (%), AMARE

`COC(=O)c1nc(-c2ccc(C#N)cc2F)cc(N)c1Cl` [Compound 16] showed a pest or weed control at 3840 g/ha ([1]; 3.84 kg ai/ha) of 30 to 44%, a pest or weed control at 3840 g/ha ([2]; 3.84 kg ai/ha) of 95 to 100% and a pest or weed control at 3840 g/ha ([3]; 3.84 kg ai/ha) of 30 to 44%. For the same compound, the pest or weed control at 3840 g/ha ([4]; 3.84 kg ai/ha) was 95 to 100%, the pest or weed control at 3840 g/ha ([5]; 3.84 kg ai/ha) was 0 to 29% and the pest or weed control at 3840 g/ha ([6]; 3.84 kg ai/ha) was 95 to 100%. For the same compound, the pest or weed control at 3840 g/ha ([7]; 3.84 kg ai/ha) was 45 to 59%, the pest or weed control at 3840 g/ha ([8]; 3.84 kg ai/ha) was 95 to 100% and the pest or weed control at 3840 g/ha ([9]; 3.84 kg ai/ha) was 0 to 29%. It also gave a pest or weed control at 3840 g/ha ([10]; 3.84 kg ai/ha) of 95 to 100%, a pest or weed control at 3840 g/ha ([11]; 3.84 kg ai/ha) of 60 to 74% and a pest or weed control at 3840 g/ha ([12]; 3.84 kg ai/ha) of 95 to 100%.
With `COC(=O)c1nc(-c2ccc(C(F)F)cc2)c(F)c(N)c1Cl` [Compound 209] the pest or weed control at 4000 g/ha ([1]; 4 kg ai/ha) was 95 to 100%, the pest or weed control at 4000 g/ha ([2]; 4 kg ai/ha) was 95 to 100% and the pest or weed control at 4000 g/ha ([3]; 4 kg ai/ha) was 95 to 100%. It also gave a pest or weed control at 4000 g/ha ([4]; 4 kg ai/ha) of 95 to 100%, a pest or weed control at 4000 g/ha ([5]; 4 kg ai/ha) of 95 to 100% and a pest or weed control at 4000 g/ha ([6]; 4 kg ai/ha) of 95 to 100%. The pest or weed control at 4000 g/ha ([7]; 4 kg ai/ha) was 95 to 100%, the pest or weed control at 4000 g/ha ([8]; 4 kg ai/ha) was 85 to 94% and the pest or weed control at 4000 g/ha ([9]; 4 kg ai/ha) was 85 to 94%. The pest or weed control at 4000 g/ha ([10]; 4 kg ai/ha) was 95 to 100%, the pest or weed control at 4000 g/ha ([11]; 4 kg ai/ha) was 95 to 100% and the pest or weed control at 4000 g/ha ([12]; 4 kg ai/ha) was 95 to 100%.
Work on `Nc1c(F)c(-c2ccc(I)cc2)nc(C(=O)O)c1Cl` [Compound 45, 4-amino-3-chloro-5-fluoro-6-(4-iodophenyl)picolinic acid] yielded a pest or weed control at 3960 g/ha ([1]; 3.96 kg ai/ha) of 95 to 100%, a pest or weed control at 3960 g/ha ([2]; 3.96 kg ai/ha) of 95 to 100% and a pest or weed control at 3960 g/ha ([3]; 3.96 kg ai/ha) of 95 to 100%. The pest or weed control at 3960 g/ha ([4]; 3.96 kg ai/ha) was 95 to 100%, the pest or weed control at 3960 g/ha ([5]; 3.96 kg ai/ha) was 95 to 100% and the pest or weed control at 3960 g/ha ([6]; 3.96 kg ai/ha) was 95 to 100%. The pest or weed control at 3960 g/ha ([7]; 3.96 kg ai/ha) was 95 to 100%, the pest or weed control at 3960 g/ha ([8]; 3.96 kg ai/ha) was 85 to 94% and the pest or weed control at 3960 g/ha ([9]; 3.96 kg ai/ha) was 95 to 100%. For the same compound, the pest or weed control at 3960 g/ha ([10]; 3.96 kg ai/ha) was 95 to 100%, the pest or weed control at 3960 g/ha ([11]; 3.96 kg ai/ha) was 95 to 100% and the pest or weed control at 3960 g/ha ([12]; 3.96 kg ai/ha) was 95 to 100%.
